Source: PubChem BioAssay (NCI)
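48-hour exposure; five concentrations; linearly interpolated endpoints. GI50 is the concentration that inhibits growth by half. TGI denotes the concentration required for complete inhibition of growth.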

What was measured:
Experiment in all cases: inhibition of tumour cell growth, NCI panel, 48 h
[1] = test system: SF-539 CNS
[2] = test system: UO-31 renal
[3] = test system: SF-268 CNS
[4] = test system: MOLT-4 leukemia
[5] = test system: CCRF-CEM leukemia
[6] = test system: U251 CNS
[7] = test system: MDA-MB-231 breast
[8] = test system: CAKI-1 renal
[9] = test system: SNB-19 CNS
[10] = test system: NCI/ADR-RES ovarian
[11] = test system: MDA-MB-435
[12] = test system: HCT-15 colon
[13] = test system: EKVX NSCLC
[14] = test system: SF-295 CNS
[15] = test system: NCI-H522 lung
[16] = test system: DU-145 prostate
[17] = test system: 786-0 renal
[18] = test system: SK-MEL-2 melanoma
[19] = test system: BT-549 breast
[20] = test system: HS 578T breast
[21] = test system: T-47D breast
[22] = test system: SW-620 colon
[23] = test system: IGROV1 ovarian
[24] = test system: K-562 leukemia
[25] = test system: RPMI-8226 leukemia
[26] = test system: HT29 colon
[27] = test system: OVCAR-5 ovarian
[28] = test system: NCI-H460 lung
[29] = test system: HOP-62 NSCLC

## CCCCC/C=C/C(=O)CCc1ccc(O)c(OC)c1
[1]
  TGI: 20.6 µM
[2]
  GI50: 1.28 µM
  TGI: 13.6 µM
[3]
  GI50: 10.9 µM
  TGI: 25.5 µM
[4]
  GI50: 10.1 µM
  TGI: > 100 µM
[5]
  GI50: 0.198 µM
  TGI: 3.01 µM
[6]
  GI50: 4.65 µM
  TGI: 17.1 µM
[7]
  GI50: 12.6 µM
  TGI: 32.8 µM
[8]
  GI50: 9.38 µM
  TGI: 27.5 µM
[9]
  GI50: 14 µM
  TGI: 27.1 µM
[10]
  GI50: 7.49 µM
  TGI: 37 µM
[11]
  GI50: 4.04 µM
  TGI: 19 µM
[12]
  GI50: 10.8 µM
  TGI: 27.2 µM
[13]
  GI50: 15.1 µM
  TGI: 31.9 µM
[14]
  GI50: 10.4 µM
  TGI: 31 µM
[15]
  GI50: 2 µM
  TGI: 13.6 µM
[16]
  GI50: 4.03 µM
  TGI: 15.4 µM
[17]
  GI50: 10.6 µM
  TGI: 23.6 µM
[18]
  GI50: 14.8 µM
  TGI: 28.8 µM
[19]
  GI50: 13.2 µM
  TGI: 26.7 µM
[20]
  GI50: 3.49 µM
  TGI: 32.8 µM
[21]
  GI50: 4.78 µM
  TGI: 18.9 µM
[22]
  GI50: 2.86 µM
  TGI: 10.3 µM
[23]
  GI50: 1.74 µM
  TGI: 6.91 µM
[24]
  GI50: 3.77 µM
  TGI: > 100 µM
[25]
  GI50: 1.69 µM
  TGI: 4.34 µM
[26]
  GI50: 2.13 µM
  TGI: 4.94 µM
[27]
  GI50: 16.2 µM
  TGI: 32.1 µM
[28]
  GI50: 15.2 µM
  TGI: 33.6 µM
[29]
  GI50: 9.77 µM
  TGI: 22.1 µM
